Assay results published in EP0449699A2, “Pyrazole derivatives as angiotensin II-receptor antagonists, process for their preparation and pharmaceutical compositions containing them” (LABORATOIRES UPSA, priority 1990, dated 1991).

Tested on: récepteurs surrénaliens de l'angiotensine II
Experiment: Displacement of radioligand [125I]-SIAII specifically bound to adrenal angiotensin II receptors (rat adrenal homogenate)
Type: binding
Conditions: 60 min, 25°C
Description: L'affinité des produits des exemples pour les récepteurs de l'angiotensine II est évaluée par technique de déplacement d'un radioligand spécifiquement fixé sur les récepteurs surrénaliens de l'angiotensine Il, chez le rat.
Une aliquote d'un homogénat de surrénales de rat incube en présence d'une concentration unique de [^125I]-SIAII (Sar^1, Tyr^4, Ile^8 - angiotensine II), antagoniste des récepteurs de l'angiotensine II, et de deux concentrations d'agents compétiteurs (10^-5 M, 10-^7 M) durant 60 min à 25°C.
La réaction est achevée par ajout de tampon, puis rapide filtration à travers des filtres de papier de verre. La liaison non spécifique est déterminée en présence d'angiotensine Il.
Les résultats sont exprimés, pour les concentrations testées, en pourcentage de déplacement du radioligand spécifiquement fixé sur les récepteurs surrénaliens de l'angiotensine Il.

Row | Compound | % de déplacement du ligand marqué (competitor 1E-5 M, 10 µM) [%] | % de déplacement du ligand marqué (competitor 1E-7 M, 0.1 µM) [%]
1 | CCCCc1nn(CC(F)(F)F)c(OCC(=O)OCC)c1Cc1ccc(-c2ccccc2-c2nn[nH]n2)cc1 [Exemple 78, [(trifluoro-2,2,2éthyl)-1 n-Butyl-3 [(tétrazolyl-5)-2' biphényl-yl-4]méthyl-4 pyrazol-yl-5] oxy acétate d'éthyle] | 73 | 58
2 | CCCc1nn(CC(=O)OCC)c(O)c1Cc1ccc(NC(=O)c2c(Cl)ccc(Cl)c2C(=O)O)cc1 [Exemple 41, Acide [[éthoxy carbonyl méthyl-1 n-propyl-3 hydroxy-5 pyrazol-yl-4]méthylphényl-yl-4] amino carbonyl-2 dichloro-3,6 benzoïque] | 85 | 2
3 | CCCc1nn(CC(F)(F)F)c(OCC(=O)OC)c1Cc1ccc(NC(=O)c2c(Cl)ccc(Cl)c2C(=O)O)cc1 [Exemple 32, [(trifluoro-2,2,2 éthyl)-1 n-propyl-3 ((carboxy-2 dichloro-3,6-benzoyl amino)-4 benzyl)-4 pyrazol-yl-5] oxyacétatede méthyle] | 98 | 52
4 | CCCc1nn(CC(=O)OCC)c(OCC(=O)OCC)c1Cc1ccc(NC(=O)c2c(Cl)ccc(Cl)c2C(=O)O)cc1 [Exemple 44, Acide [[(Ethoxy carbonyl méthyl)-1 n-propyl-3 (Ethoxy carbonyl méthyloxy)-5 pyrazol-yl-4]méthylphényl-yl-4] amino carbonyl-2 dlchloro-3,6-benzoïque] | 96 | 9
5 | CCCc1nn(C)c(OC(=O)N(C)C)c1Cc1ccc(-c2ccccc2-c2nn[nH]n2)cc1 [Exemple 86, Méthyl-1 n-Propyl-3 [(tétrazolyl-5)-2' biphényl-yl-4] méthyl-4 (N,N-diméthyl carbamoyl) oxy-5 pyrazole] | 58 | 41
6 | CCCc1nn(C)c(COC)c1Cc1ccc(NC(=O)c2ccccc2S(=O)(=O)O)cc1 [Exemple 107, Acide [(Méthyl-1 n-propyl-3 méthoxy méthyl-5 pyrazol-yl-4)méthylphényl-yl-4] amino carbonyl-2 benzène sulfonlque] | 83 | 62
7 | CCCc1n[nH]c(CO)c1Cc1ccc(NC(=O)c2ccccc2S(=O)(=O)O)cc1 [Exemple 116, Acide ((n-Propyl-3 hydroxy méthyl-5 pyrazol-yl-4)méthylphényl-yl-4] amino carbonyl-2 benzène sulfonique] | 82 | 12
8 | CCCCc1nn(C)c(O)c1Cc1ccc(NC(=O)c2c(Cl)ccc(Cl)c2C(=O)O)cc1 [Exemple 40, Acide [(Méthyl-1 n-butyl-3 hydroxy-5 pyrazolyl-4]méthylphényl-yl-4] amino carbonyl-2 dichloro-3,6 benzoïque] | 83 | 0
9 | CCCCc1nn(C)c(OC(=O)N(C)C)c1Cc1ccc(-c2ccccc2-c2nn[nH]n2)cc1 [Exemple 82, Méthyl-1 n-Butyl-3 [(tétrazolyl-5)-2' biphényl-yl-4] méthyl-4 (N,N-diméthyl carbamoyl) oxy-5 pyrazole] | 71 | 47
10 | CCCCc1nn(CC(F)(F)F)c(OC(=O)N(C)C)c1Cc1ccc(-c2ccccc2-c2nn[nH]n2)cc1 [Exemple 80, (Trifluoro-2,2,2 éthyl)-1 n-Butyl-3 [(tétrazolyl-5)-2'biphényl-yl-4] méthyl-4 (N,N-diméthyl carbamoyl) oxy-5 pyrazole] | 69 | 48

Results, then the compound that gave them:

Row | % de déplacement du ligand marqué (competitor 1E-5 M, 10 µM) [%] | % de déplacement du ligand marqué (competitor 1E-7 M, 0.1 µM) [%] | Compound
11 | 83 | 60 | CCCCc1nn(C)c(OCCO)c1Cc1ccc(NC(=O)c2ccccc2S(=O)(=O)O)cc1 [Exemple 51, Acide [[Méthyl-1 n-butyl-3 (hydroxy-2 éthoxy)-5 pyrazol-yl-4]méthylphényl-yl-4] amino carbonyl-2 benzène sulfonique]
12 | 53 | 0 | CCCc1nn(C)c(OCCO)c1Cc1ccc(-c2ccsc2C(=O)O)cc1 [Exemple 145, [Méthyl-1 n-Propyl-3 [(carboxy-2 thiényl-3)-4 benzyl]-4 pyrazol-yl-5] oxy-2 éthanol]
13 | 92 | 60 | CCCc1nn(C)c(OCC(=O)OCC)c1Cc1ccc(NC(=O)c2ccccc2S(=O)(=O)O)cc1 [Exemple 45, Acide [[Méthyl-1 n-propyl-3 (Ethoxy carbonyl méthyloxy)-5 pyrazol-yl-4]méthylphényl-yl-4] amino carbonyl-2 benzène sulfonlque.]
14 | 85 | 48 | CCCc1nn(C)c(OCC(=O)O)c1Cc1ccc(NC(=O)c2ccccc2S(=O)(=O)O)cc1 [Exemple 35, Acide [Méthyl-1 n-propyl-3 [(sulfo-2 benzoyl amino)-4 benzyl]-4 pyrazol-yl-5] oxy acétique]
15 | 63 | 5 | CCCc1nn(C)c(OCCO)c1Cc1ccc(-c2ccccc2C(=O)O)cc1 [Exemple 137, [Méthyl-1 n-Propyl-3 (carboxy-2'blphényl-yl-4)méthyl-4 pyrazol-yl-5]oxy-2 éthanol]
16 | 93 | 60 | CCCc1nn(C)c(OCC(=O)OC)c1Cc1ccc(NC(=O)c2c(Cl)ccc(Cl)c2C(=O)O)cc1 [Exemple 31, [Méthyl-1 n-propyl-3 ((carboxy-2 dlchloro-3,6-benzoyl amino)-4 benzyl)-4 pyrazol-yl-5] oxyacétatede méthyle]
17 | 82 | 34 | CCCc1nn(C)c(OCC(=O)OC)c1Cc1ccc(NC(=O)c2ccccc2C(=O)O)cc1 [Exemple 28, [Méthyl-1 n-propyl-3 ((carboxy-2 benzoyl amino)-4 benzyl)-4 pyrazol-yl-5] oxyacétatede méthyle]
18 | 58 | 9 | CCCCc1nn(C)c(OCC(=O)O)c1Cc1ccc(-c2ccccc2C(=O)O)cc1 [Exemple 37, Acide [Méthyl-1 n-butyl-3 (carboxy-2' biphényl-yl-4)méthyl-4 pyrazol-yl-5] oxyacétique]
19 | 65 | 51 | CCCc1nn(CC(F)(F)F)c(OCC(=O)OCC)c1Cc1ccc(-c2ccccc2-c2nn[nH]n2)cc1 [Exemple 84, ((Trifluoro-2,2,2 éthyl)-1 n-Propyl-3 [(tétrazolyl-5)-2' biphényl-yl-4]méthyl-4 pyrazol-yl-5] oxy acétate d'éthyle]
20 | 67 | 49 | CCCc1nn(C)c(OCC(=O)OCC)c1Cc1ccc(-c2ccccc2-c2nnn[nH]2)cc1 [Exemple 70, [Méthyl-1 n-Propyl-3 [(tétrazolyl-5)-2' biphényl-yl-4]méthyl-4 pyrazol-yl-5] oxy acétate d'éthyle]
21 | 75 | 70 | CCCc1nn(CC(F)(F)F)c(OCCO)c1Cc1ccc(-c2ccccc2-c2nn[nH]n2)cc1 [Exemple 92, [(trifluoro-2,2,2 éthyl)-1 n-Propyl-3 [(tétrazolyl-5)-2'biphényl-yl-4]méthyl-4 pyrazol-yl-5] oxy-2 éthanol]
22 | 80 | 40 | CCCc1nn(C)c(OCC(=O)OCC)c1Cc1ccc(NC(=O)c2ccccc2C(=O)O)cc1 [Exemple 29, [Méthyl-1 n-propyl-3 ((carboxy-2 benzoyl amino)-4 benzyl)-4 pyrazol-yl-5] oxyacétate d'éthyle]
23 | 64 | 9 | CCCc1nn(C)c(OCC(=O)OCC)c1Cc1ccc(-c2ccsc2-c2nnn[nH]2)cc1 [Exemple 141, [Méthyl-1 n-propyl-3 [[(tétrazolyl-5)-2 thiényl-3]-4 benzyl]-4 pyrazol-yl-5] oxy acétate d'éthyle]
